From PubChem BioAssay AID1963959 (Molecular Pharmacology Branch, DTP, NCI, 2024)

Test system: T-47D spheroids with HUVEC/MSC, viability
Test: Anticancer human tumor T-47D cell line growth inhibition [PI3K];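 further: spheroids exposed to agents for seven days before reading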;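 on viability, T/C: percent of DMSO vehicle control luminescence so 100% = untreated growth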
Details: for IC50: curve of first compound; for viability, T/C: stronger effect = lower value
Method in brief: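 Complex 3D spheroids (cancer cells + endothelial HUVEC + mesenchymal stem cells); drug pairs of targeted agent x inavolisib/alpelisib/duvelisib/copanlisib; half-log series from ~Cmax, max 10 microM if Cmax unknown; endpoint viability.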

[1] = second compound 0.0316 µM, first compound 0.0316 µM
[2] = second compound 0.0316 µM, first compound 0.1 µM
[3] = second compound 0.0316 µM, first compound 0.316 µM
[4] = second compound 0.0316 µM, first compound 1 µM
[5] = second compound 0.0316 µM, first compound 3.16 µM
[6] = second compound 0.0316 µM, first compound 10 µM
[7] = second compound 0.1 µM, first compound 0.0316 µM
[8] = second compound 0.1 µM, first compound 0.1 µM
[9] = second compound 0.1 µM, first compound 0.316 µM
[10] = second compound 0.1 µM, first compound 1 µM
[11] = second compound 0.1 µM, first compound 3.16 µM
[12] = second compound 0.1 µM, first compound 10 µM
[13] = second compound 0.316 µM, first compound 0.0316 µM
[14] = second compound 0.316 µM, first compound 0.1 µM
[15] = second compound 0.316 µM, first compound 0.316 µM
[16] = second compound 0.316 µM, first compound 1 µM
[17] = second compound 0.316 µM, first compound 3.16 µM
[18] = second compound 0.316 µM, first compound 10 µM
[19] = second compound 1 µM, first compound 0.0316 µM
[20] = second compound 1 µM, first compound 0.1 µM
[21] = second compound 1 µM, first compound 0.316 µM
[22] = second compound 1 µM, first compound 1 µM
[23] = second compound 1 µM, first compound 3.16 µM
[24] = second compound 1 µM, first compound 10 µM
[25] = second compound 3.16 µM, first compound 0.0316 µM
[26] = second compound 3.16 µM, first compound 0.1 µM
[27] = second compound 3.16 µM, first compound 0.316 µM
[28] = second compound 3.16 µM, first compound 1 µM
[29] = second compound 3.16 µM, first compound 3.16 µM
[30] = second compound 3.16 µM, first compound 10 µM
[31] = second compound 10 µM, first compound 0.0316 µM
[32] = second compound 10 µM, first compound 0.1 µM
[33] = second compound 10 µM, first compound 0.316 µM
[34] = second compound 10 µM, first compound 1 µM
[35] = second compound 10 µM, first compound 3.16 µM
[36] = second compound 10 µM, first compound 10 µM

SMILES: CCCS(=O)(=O)Nc1ccc(F)c(C(=O)c2c[nH]c3ncc(-c4ccc(Cl)cc4)cc23)c1F + CC(Nc1ncnc2nc[nH]c12)c1cc2cccc(Cl)c2c(=O)n1-c1ccccc1
- IC50 (second compound 0.0316 µM): > 10 µM
- IC50 (second compound 0.1 µM): > 10 µM
- IC50 (second compound 0.316 µM): 8.46 µM
- IC50 (second compound 1 µM): > 10 µM
- IC50 (second compound 3.16 µM): 9.93 µM
- IC50 (second compound 10 µM): 9.51 µM
- viability, T/C [1]: 114%
- viability, T/C [2]: 98.7%
- viability, T/C [3]: 84.7%
- viability, T/C [4]: 98.4%
- viability, T/C [5]: 88.6%
- viability, T/C [6]: 53%
- viability, T/C [7]: 84.5%
- viability, T/C [8]: 96.1%
- viability, T/C [9]: 105%
- viability, T/C [10]: 84.8%
- viability, T/C [11]: 104%
- viability, T/C [12]: 52.1%
- viability, T/C [13]: 107%
- viability, T/C [14]: 87.7%
- viability, T/C [15]: 109%
- viability, T/C [16]: 83.8%
- viability, T/C [17]: 92%
- viability, T/C [18]: 42.9%
- viability, T/C [19]: 97.2%
- viability, T/C [20]: 106%
- viability, T/C [21]: 89.2%
- viability, T/C [22]: 112%
- viability, T/C [23]: 85.6%
- viability, T/C [24]: 50.3%
- viability, T/C [25]: 85.5%
- viability, T/C [26]: 104%
- viability, T/C [27]: 73.6%
- viability, T/C [28]: 84.8%
- viability, T/C [29]: 85.3%
- viability, T/C [30]: 49.8%
- viability, T/C [31]: 84.7%
- viability, T/C [32]: 82.8%
- viability, T/C [33]: 92.2%
- viability, T/C [34]: 72.7%
- viability, T/C [35]: 74.7%
- viability, T/C [36]: 48.2%

SMILES: C=CC(=O)N1CCN(c2nc(=O)n(-c3c(C)ccnc3C(C)C)c3nc(-c4c(O)cccc4F)c(F)cc23)C(C)C1 (centres undefined) + CC(Nc1ncnc2nc[nH]c12)c1cc2cccc(Cl)c2c(=O)n1-c1ccccc1
- IC50 (second compound 0.0316 µM): > 10 µM
- IC50 (second compound 0.1 µM): > 10 µM
- IC50 (second compound 0.316 µM): > 10 µM
- IC50 (second compound 1 µM): > 10 µM
- IC50 (second compound 3.16 µM): > 10 µM
- IC50 (second compound 10 µM): > 10 µM
- viability, T/C [1]: 98.2%
- viability, T/C [2]: 80.2%
- viability, T/C [3]: 93.8%
- viability, T/C [4]: 92.8%
- viability, T/C [5]: 105%
- viability, T/C [6]: 112%
- viability, T/C [7]: 121%
- viability, T/C [8]: 73%
- viability, T/C [9]: 90.1%
- viability, T/C [10]: 86.4%
- viability, T/C [11]: 115%
- viability, T/C [12]: 139%
- viability, T/C [13]: 107%
- viability, T/C [14]: 110%
- viability, T/C [15]: 93.6%
- viability, T/C [16]: 85.3%
- viability, T/C [17]: 89.6%
- viability, T/C [18]: 117%
- viability, T/C [19]: 74.3%
- viability, T/C [20]: 89.2%
- viability, T/C [21]: 88.5%
- viability, T/C [22]: 98.4%
- viability, T/C [23]: 118%
- viability, T/C [24]: 115%
- viability, T/C [25]: 75.5%
- viability, T/C [26]: 92.3%
- viability, T/C [27]: 94%
- viability, T/C [28]: 94.1%
- viability, T/C [29]: 107%
- viability, T/C [30]: 122%
- viability, T/C [31]: 100%
- viability, T/C [32]: 92.5%
- viability, T/C [33]: 94%
- viability, T/C [34]: 112%
- viability, T/C [35]: 106%
- viability, T/C [36]: 113%
